{
  "source": "patent US20130129668A1",
  "about": "“Diagnosis and treatment of arthritis using epigenetics” (The Regents of the University of California, priority 2011, published 2013)",
  "origin": "cited, not measured here",
  "key": {"FLS": {"test_system": "FLS", "settings": "FLS cultured in the presence of 5-azaC for 3 months"}},
  "data": [
    {"smiles": "Nc1ncn([C@H]2C[C@H](O)[C@@H](CO)O2)c(=O)n1", "note": "[5-azaC, 5-aza-2′-deoxycytidine]", "values": [
      {"measurement": "autoreactivity", "setting": "T cells", "value": "enhances autoreactivity"},
      {"measurement": "expression of T cell genes (IFNα, IL-4, CD70, LFA-1)", "setting": "T cells", "value": "affects expression of many T cell genes"},
      {"measurement": "expression of genes implicated in RA", "setting": "FLS", "value": "increased expression of several genes"}
    ]}
  ]
}
